The record followed here is BindingDB's records for patent US20250235456 (Iambic Therapeutics, 2025).

Assay [1] deals with Cyclin-dependent kinase 1 (Homo sapiens, UniProt P06493). In words: CDK1/Cyclin B1 ADP-Glo Kinase Assay. As to the method: (§1) The purpose of CDK1/Cyclin Bi assay is to evaluate the inhibition (% inhibition and IC50 values) of small molecule inhibitors by using a Luminescent based ADP-Glo assay. CDK1/Cyclin B1 catalyzes the production of ADP from ATP. ADP-Glo assay monitors ADP producing biochemical reactions. ADP-Glo is performed in 2 steps upon completion of kinase reaction: a combined termination of kinase reaction and depletion of remaining ATP in the first step, and conversion of generated ADP to ATP and the newly produced ATP to light output using luciferase/luciferin reaction in the second step. The luminescent signal generated is proportional to the ADP concentration produced and is correlated with the kinase activity. CDK1/Cyclin B1 was purchased from Carna (Cat 04-102). […] The assay was initiated with the addition of ATP-containing substrate solution, following a 30-minute pre-incubation of enzyme and inhibitor at room temperature in the reaction mixture. The reaction was stopped after 90 minutes at room temperature by the addition of 10 μL of ADP-GLO Reagent. After a 90 minute incubation, 20 μL of Kinase Detection Reagent was added. Samples were incubated for 40 minutes, after which plate well luminescence was measured on a Envision microplate reader. The IC50 determinations were made from a plot of the fractional velocity as a function of inhibitor concentration fit to the 4 parameters IC50 equation.
For orientation: ADP-Glo turns the ADP formed in a reaction into a luminescent signal.

Assay [2] deals with Cyclin-dependent kinase 2/G1/S-specific cyclin-E1 (Homo sapiens, UniProt P24941). In words: CDK2/Cyclin E1 ADP-Glo Kinase Assay. On the procedure:
as §1, with “of CDK2/Cyclin El” for “of CDK1/Cyclin Bi”, “assay. CDK2/Cyclin El full length” for “assay. CDK1/Cyclin B1”, “activity. CDK2/Cyclin E1” for “activity. CDK1/Cyclin B1”, “from Eurofins” for “from Carna”, “(Cat 14-475M).” for “(Cat 04-102).”, “20 uL” for “20 μL”

In assay [3] the target is Cyclin-dependent kinase 6/G1/S-specific cyclin-D3 (Homo sapiens, UniProt Q00534). As to the kind of experiment: CDK6/Cyclin D3 ADP-Glo Kinase Assay. On the procedure:
as §1, with “of the CDK6/Cyclin D3” for “of CDK1/Cyclin Bi”, “values) in the presence” for “values)”, “assay. CDK6/Cyclin D3” for “assay. CDK1/Cyclin B1”, “activity. CDK6/Cychin D3” for “activity. CDK1/Cyclin B1”, “from Carna.” for “from Carna (Cat 04-102).”, “a 90-minute” for “a 90 minute”

Sequence of Cyclin-dependent kinase 1 (P06493 whole entry): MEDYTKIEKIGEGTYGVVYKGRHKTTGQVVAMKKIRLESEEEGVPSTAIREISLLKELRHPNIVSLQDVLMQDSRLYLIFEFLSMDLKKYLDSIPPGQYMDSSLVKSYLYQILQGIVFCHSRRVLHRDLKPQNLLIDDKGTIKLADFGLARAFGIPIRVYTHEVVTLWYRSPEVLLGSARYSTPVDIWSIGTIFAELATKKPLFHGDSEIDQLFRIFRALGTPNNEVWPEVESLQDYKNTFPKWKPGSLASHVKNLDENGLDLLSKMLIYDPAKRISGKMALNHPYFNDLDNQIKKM
Sequence of Cyclin-dependent kinase 6/G1/S-specific cyclin-D3 (Q00534 whole entry): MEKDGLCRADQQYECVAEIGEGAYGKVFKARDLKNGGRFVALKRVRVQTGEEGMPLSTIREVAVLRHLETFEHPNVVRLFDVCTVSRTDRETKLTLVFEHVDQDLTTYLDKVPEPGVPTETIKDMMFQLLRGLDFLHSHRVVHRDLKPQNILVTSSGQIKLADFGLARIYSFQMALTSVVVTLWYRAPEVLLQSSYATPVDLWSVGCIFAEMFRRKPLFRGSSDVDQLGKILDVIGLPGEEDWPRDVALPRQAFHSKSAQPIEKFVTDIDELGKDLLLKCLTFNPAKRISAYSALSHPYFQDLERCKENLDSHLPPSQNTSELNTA
Sequence of Cyclin-dependent kinase 6/G1/S-specific cyclin-D3 (P30281 whole entry, further chain): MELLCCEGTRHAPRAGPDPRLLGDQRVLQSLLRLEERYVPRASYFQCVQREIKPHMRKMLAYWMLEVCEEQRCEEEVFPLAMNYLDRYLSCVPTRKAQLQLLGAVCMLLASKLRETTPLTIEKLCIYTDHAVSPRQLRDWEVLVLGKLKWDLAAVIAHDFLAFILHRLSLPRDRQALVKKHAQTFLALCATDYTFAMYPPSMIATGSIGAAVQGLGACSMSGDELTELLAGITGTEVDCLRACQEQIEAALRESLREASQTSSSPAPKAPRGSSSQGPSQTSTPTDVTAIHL

As usually defined, the IC50 is the point on the concentration scale where inhibition reaches its midpoint. Take `CN1Cc2ccc(Nc3ncc4ccnc(N5CCC6(C5)CC6(F)F)c4n3)cc2C1` (stereo unspecified) [US20250235456, Compound 22]: the IC50 in assay [1], in assay [2] and in assay [3] was less than 200 nM in each case.
For the compound `Cc1cc2cnc(Nc3cnn(CC4(N(C)C)CC4)c3)nc2c(N2CCC3(C2)CC3(F)F)n1` (stereo unspecified) [US20250235456, Compound 36], the IC50 in assay [1] was greater than 2000 nM; in assay [2] it was “in the range around 350 nM”.
For `Cc1cc2cnc(NC3CC4CC3CN4C)nc2c(N2CCC3(C2)CC3(F)F)n1` (stereo unspecified) [US20250235456, Compound 43], the figures for the 50% inhibitory concentration (IC50) in assay [1], in assay [2] and in assay [3] were greater than 2000 nM, “in the range around 1250 nM” and 200 to 500 nM, respectively.
In the case of `Cc1cc2cnc(NC3CCN(S(=O)(=O)C4CC4)CC3)nc2c(N2CC3(C2)CN(C2CC2)C3)n1` [US20250235456, Compound 48], the half-maximal inhibitory concentration (IC50) in assay [2] was less than 200 nM; in assay [3], 200 to 500 nM.
Consider `Cc1cc2cnc(NC3CCN(S(=O)(=O)C4CC4)CC3)nc2c(N2CC(OC3CC3)C2)n1` [US20250235456, Compound 57], for which the values for the IC50 in assay [1], in assay [2] and in assay [3] were 200 to 500 nM, less than 200 nM and less than 200 nM, respectively.
Take `Cc1cc2cnc(NC3CCN(S(=O)(=O)C4(C)CC4)CC3)nc2c(N2CCC3(CN(C)C3)C2)n1` [US20250235456, Compound 59]: the half-inhibitory concentration (IC50) in assay [2] and in assay [3] was less than 200 nM each time.
Take `Cc1cc2cnc(NC3CCN(S(=O)(=O)C4CC4)CC3)nc2c(N2CC3(CC(O)C3)C2)n1` [US20250235456, Compound 66]: the IC50 in assay [2] and in assay [3] was less than 200 nM throughout.
Turning to `Cc1cc2cnc(NC3CCN(S(=O)(=O)CCC4(C)CC4)CC3)nc2c(N2CC(F)(F)C3(CNC3)C2)n1` [US20250235456, Compound 67], the concentration for half-maximal inhibition (IC50) in assay [1] was 200 to 500 nM; in assay [2] it was less than 200 nM; in assay [3] it was 200 to 500 nM.
For the compound `Cc1cc2cnc(NC3CCN(S(C)(=O)=O)CC3)nc2c(C2CC(C)(CO)C2)n1` (stereo unspecified) [US20250235456, Compound 69], in assay [1], the 50% inhibitory concentration (IC50) is less than 200 nM.
Take `Cc1cc2cnc(NC3CCN(S(C)(=O)=O)CC3)nc2c(N2CC3(CNCC3(F)F)C2)n1` [US20250235456, Compound 85]: the concentration for half-maximal inhibition (IC50) in assay [1], in assay [2] and in assay [3] was less than 200 nM in each case.
With `Cc1cc2cnc(N[C@@H]3CCOC[C@H]3O)nc2c(N2CC(O)(C3CC3)C2)n1` [US20250235456, Compound 86], the IC50 in assay [1] was greater than 2000 nM; in assay [2] it was “in the range around 350 nM”; in assay [3], 200 to 500 nM.
As to `CS(=O)(=O)N1CCC(Nc2ncc3cc(C(F)F)nc(N4CC5(CCNCC5(F)F)C4)c3n2)CC1` [US20250235456, Compound 90], the IC50 in assay [2] and in assay [3] was less than 200 nM each time.
In assay [2], `Cc1cc2cnc(NC3CCN(S(=O)(=O)c4ccn(C)n4)CC3)nc2c(N2CC(F)(F)C3(CNC3)C2)n1` [US20250235456, Compound 94] displayed a 50% inhibitory concentration (IC50) of less than 200 nM.
Consider `Cc1cc2cnc(NC3CCN(S(C)(=O)=O)CC3)nc2c(N2CC3(CNCC3C(F)F)C2)n1` (stereo unspecified) [US20250235456, Compound 100], for which the concentration for half-maximal inhibition (IC50) in assay [1], in assay [2] and in assay [3] was less than 200 nM throughout.
For the compound `Cc1cc2cnc(NC3CCN(S(C)(=O)=O)CC3)nc2c(N2CC3(CN(C)CC3(F)F)C2)n1` [US20250235456, Compound 101], the figures for the IC50 in assay [1], in assay [2] and in assay [3] were 200 to 500 nM, less than 200 nM and less than 200 nM, respectively.
